Here are results for one molecule from ChEMBL document CHEMBL4190226, “Designing novel inhibitors against histone acetyltransferase (HAT: GCN5) of Plasmodium falciparum” (Eur J Med Chem, 2017).

The source made the active and inactive calls. The calls are words filed in the database; no cut-off is given here.

The experiment deals with Histone acetyltransferase GCN5 (Plasmodium falciparum (isolate 3D7)) (UniProt Q8IB67). The experiment is described as follows: Inhibition of GCN5 in Plasmodium falciparum 3D7 assessed as reduction in H3K9 acetylation at 25 uM incubated for 15 mins measured by SDS-PAGE analysis.
Histone acetyltransferase GCN5 (Plasmodium falciparum (isolate 3D7)), sequence (Q8IB67 as listed by the source): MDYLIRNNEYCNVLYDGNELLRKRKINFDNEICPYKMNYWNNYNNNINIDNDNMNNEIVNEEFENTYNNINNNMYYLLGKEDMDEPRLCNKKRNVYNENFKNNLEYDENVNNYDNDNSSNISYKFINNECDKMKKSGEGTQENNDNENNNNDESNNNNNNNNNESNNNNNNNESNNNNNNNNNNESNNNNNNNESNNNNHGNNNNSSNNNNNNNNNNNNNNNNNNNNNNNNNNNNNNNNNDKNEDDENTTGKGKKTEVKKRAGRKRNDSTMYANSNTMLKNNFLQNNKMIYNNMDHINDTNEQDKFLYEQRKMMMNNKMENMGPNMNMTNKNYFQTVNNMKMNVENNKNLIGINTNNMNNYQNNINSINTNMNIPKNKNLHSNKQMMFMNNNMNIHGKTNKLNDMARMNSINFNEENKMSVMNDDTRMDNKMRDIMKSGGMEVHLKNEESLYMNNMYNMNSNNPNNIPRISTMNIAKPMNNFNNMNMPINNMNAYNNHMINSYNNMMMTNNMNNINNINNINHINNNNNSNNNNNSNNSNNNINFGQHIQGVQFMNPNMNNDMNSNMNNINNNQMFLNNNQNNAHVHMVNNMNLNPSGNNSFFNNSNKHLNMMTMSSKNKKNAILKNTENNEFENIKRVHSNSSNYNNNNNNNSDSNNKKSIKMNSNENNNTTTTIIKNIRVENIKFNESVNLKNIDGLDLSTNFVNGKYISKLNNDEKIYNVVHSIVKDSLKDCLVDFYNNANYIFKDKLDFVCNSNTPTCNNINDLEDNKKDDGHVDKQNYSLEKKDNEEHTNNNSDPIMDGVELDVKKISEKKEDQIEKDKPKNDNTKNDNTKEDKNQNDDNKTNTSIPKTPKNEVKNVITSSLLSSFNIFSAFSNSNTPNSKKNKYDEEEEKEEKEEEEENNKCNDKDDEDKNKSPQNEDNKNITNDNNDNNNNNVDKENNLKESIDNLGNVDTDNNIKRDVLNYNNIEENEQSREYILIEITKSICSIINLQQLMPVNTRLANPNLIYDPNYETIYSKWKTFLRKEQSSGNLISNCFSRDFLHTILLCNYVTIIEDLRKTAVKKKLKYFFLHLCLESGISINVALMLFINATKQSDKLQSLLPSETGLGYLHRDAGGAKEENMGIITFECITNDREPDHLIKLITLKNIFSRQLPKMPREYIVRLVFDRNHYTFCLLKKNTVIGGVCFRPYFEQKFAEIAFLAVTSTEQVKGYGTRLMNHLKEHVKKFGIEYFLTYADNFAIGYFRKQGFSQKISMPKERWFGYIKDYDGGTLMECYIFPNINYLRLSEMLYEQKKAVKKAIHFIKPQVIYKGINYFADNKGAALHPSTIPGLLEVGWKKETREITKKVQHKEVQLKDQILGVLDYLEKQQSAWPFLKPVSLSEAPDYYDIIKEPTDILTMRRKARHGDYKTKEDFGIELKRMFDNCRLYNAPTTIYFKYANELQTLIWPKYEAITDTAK

With `CCCCCCCCCCCC1=C(O)C(=O)C=C(O)C1=O`, the inhibition result is “Active”.
